# Results taken from patent US9889078B2, “Skin and/or hair whitening mixture” (Symrise AG, priority 2013, dated 2018).
# Tested on: human full-thickness skin explants
# Test: ex-vivo study of lightening efficacy (melanin content) in human full-thickness skin explants
# Assay type: cell-based
# Conditions: for Melanin reduction: Reduction vs. Standard (%): treatments versus placebo at day 6, phototype tanned
# Procedure: To evaluate the lightening efficacy of the test products an ex-vivo study using human full-thickness skin explants was performed. […] 1,2-Pentandiol was added to some of the blends to improve the penetration of the active ingredients into the skin layers.
SMILES,Melanin reduction: Reduction vs. Standard (%),further results
"CC(c1ccccc1)c1ccc(O)cc1O (centres unmarked) [Example C2, Phenylethyl Resorcinol]",−13%,
CC(C)=CCC[C@@](C)(O)[C@@H]1CC=C(C)CC1 [Bisabolol],,"efficacy (melanin decrease) (0.08% Bisabolol alone, ex vivo model, tanned phototype): did not have any efficacy"
"CC(c1ccccc1)c1ccc(O)cc1O (centres unmarked) [Pheneylethyl Resorcinol, Phenylethyl Resorcinol]",,"melanin decrease (0.4% Phenylethyl Resorcinol alone, tanned phototype): 21%"
"CC(c1ccccc1)c1ccc(O)cc1O (centres unmarked) [Example C3, Phenylethyl Resorcinol]",−21%,
"CC(C)=CCC[C@](C)(O)C1CC=C(C)CC1 (some centres unmarked) [Example C4, Bisabolol]",0%,
